The source of these data is US6410792B1, “Amide derivatives and methods for using the same as selective neuropeptide Y receptor antagonists” (Bayer Corporation, priority 1997, dated 2002).

The target in one data set is human Y4/PP1 receptor (Homo sapiens, UniProt P50391). In words: Human Y4/PP1 receptor binding assay ([125I]human PP, membrane protein). As to conditions: [125I]human PP, membrane protein; read-out: hNPY4 IC50. In short, it runs like this:
(§1)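 Filtration binding with membrane protein and drug dilution, 2 h at room temperature with mixing, radioactivity counted by gamma or scintillation. Y2: 25 pM [125I]PYY in Krebs-Ringer bicarbonate pH 7.4 with 0.01% BSA, nonspecific by 1 μM NPY. Y4/PP1: 50 pM [125I]hPP in HEPES-buffered saline pH 7.4 with protease inhibitors and 0.3% BSA, nonspecific by 1 μM hPP.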

Another data set has as its target T1, Y2 receptor (Homo sapiens, UniProt P49146).
T1 sequence (P49146 1-381): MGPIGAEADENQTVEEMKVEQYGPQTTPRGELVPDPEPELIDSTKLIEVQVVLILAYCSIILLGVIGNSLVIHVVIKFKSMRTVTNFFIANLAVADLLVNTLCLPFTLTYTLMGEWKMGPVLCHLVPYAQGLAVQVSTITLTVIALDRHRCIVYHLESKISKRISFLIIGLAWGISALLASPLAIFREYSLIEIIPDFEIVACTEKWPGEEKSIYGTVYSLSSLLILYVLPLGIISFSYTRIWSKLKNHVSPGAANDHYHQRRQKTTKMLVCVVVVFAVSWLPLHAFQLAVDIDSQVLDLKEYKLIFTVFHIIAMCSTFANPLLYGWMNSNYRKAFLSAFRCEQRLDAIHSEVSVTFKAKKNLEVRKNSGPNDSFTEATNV
The experiment in a line: Y2 receptor binding assay ([125I]PYY, membrane protein). As to conditions: [125I]PYY, membrane protein; read-out: hNPY2 IC50. In short, it runs like this:
as §1

In another data set the target is T2, Human NPY5 receptor (Homo sapiens, UniProt Q15761).
T2 sequence (Q15761 1-445): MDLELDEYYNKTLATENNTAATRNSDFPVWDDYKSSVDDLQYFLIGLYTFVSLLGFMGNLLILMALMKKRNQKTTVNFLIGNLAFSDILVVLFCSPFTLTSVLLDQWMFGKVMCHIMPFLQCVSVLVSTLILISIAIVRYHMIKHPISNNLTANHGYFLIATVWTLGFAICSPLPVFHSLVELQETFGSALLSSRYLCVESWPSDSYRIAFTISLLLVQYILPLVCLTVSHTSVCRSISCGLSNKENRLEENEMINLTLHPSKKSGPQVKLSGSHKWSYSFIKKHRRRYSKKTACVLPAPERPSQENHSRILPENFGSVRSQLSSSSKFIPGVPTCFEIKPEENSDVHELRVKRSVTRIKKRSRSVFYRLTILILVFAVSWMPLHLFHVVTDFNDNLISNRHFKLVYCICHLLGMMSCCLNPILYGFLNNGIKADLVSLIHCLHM
In words: Human NPY5 receptor binding assay ([125I]PYY, membrane protein). As to conditions: [125I]PYY, read-out: hNPY5 IC50. In short, it runs like this: (§2)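 Membrane protein was incubated with 75-100 pM porcine [125I]PYY and test compound for 2 hours at room temperature with constant mixing in pH 7.4 Tris buffer containing NaCl, KCl, CaCl2, MgSO4, 0.1% BSA and bacitracin. Nonspecific binding was defined with 1 μM PYY. Bound radioactivity was counted after filtration.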

For the next data set, the target named is T3, Rat NPY5 receptor (Rattus norvegicus, UniProt Q63634).
T3 sequence (Q63634 1-445): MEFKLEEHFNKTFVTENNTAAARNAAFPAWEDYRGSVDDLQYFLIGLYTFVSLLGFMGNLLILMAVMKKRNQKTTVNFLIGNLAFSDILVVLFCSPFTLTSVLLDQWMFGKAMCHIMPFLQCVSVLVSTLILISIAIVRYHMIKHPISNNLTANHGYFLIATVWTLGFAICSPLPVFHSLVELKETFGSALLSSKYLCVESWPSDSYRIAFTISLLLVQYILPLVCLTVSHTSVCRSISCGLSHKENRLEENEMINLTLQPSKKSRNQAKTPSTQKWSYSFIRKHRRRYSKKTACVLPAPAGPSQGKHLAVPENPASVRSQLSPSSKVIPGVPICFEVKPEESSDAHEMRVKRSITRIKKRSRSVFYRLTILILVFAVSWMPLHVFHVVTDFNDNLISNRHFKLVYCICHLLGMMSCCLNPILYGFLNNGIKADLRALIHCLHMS
The experiment in a line: Rat NPY5 receptor binding assay ([125I]PYY, membrane protein). As to conditions: [125I]PYY, read-out: rNPY5 IC50. In short, it runs like this:
as §2

In a further data set the target is T4, Human NPY1 receptor (Homo sapiens, UniProt P25929).
T4 construct: host or cells: SK-N-MC cells
T4 sequence (P25929 1-384): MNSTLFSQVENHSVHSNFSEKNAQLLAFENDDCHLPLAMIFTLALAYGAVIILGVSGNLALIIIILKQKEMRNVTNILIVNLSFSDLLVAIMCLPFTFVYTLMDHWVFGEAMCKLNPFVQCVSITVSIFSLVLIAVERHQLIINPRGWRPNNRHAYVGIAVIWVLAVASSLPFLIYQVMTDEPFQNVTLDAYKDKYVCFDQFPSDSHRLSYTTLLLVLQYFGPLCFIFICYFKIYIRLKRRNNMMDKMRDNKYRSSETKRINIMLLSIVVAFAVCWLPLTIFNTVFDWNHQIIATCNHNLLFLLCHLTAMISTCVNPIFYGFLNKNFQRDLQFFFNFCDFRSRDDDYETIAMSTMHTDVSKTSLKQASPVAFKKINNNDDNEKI
The experiment in a line: Human NPY1 receptor binding assay ([125I]PYY, SK-N-MC cells). As to conditions: [125I]PYY, SK-N-MC cells; read-out: hNPYI IC50. On the procedure: A. Human NPY1 Receptor Binding Assay
This is a modification of Gordon et al., (J. Neurochem. 55:506-513, 1990). SK-N-MC cell (ATCC, Rockville, Md.) were plated in 24-well plates. Once confluent, cells were rinsed with Dulbecco's phosphate buffered saline (DPBS). Cells were then preincubated in binding buffer containing serum-free DMEM, 25 mM HEPES (pH 7.3), 0.5% bovine serum albumin (BSA), 0.1% bacitracin and 0.1 mM phenylmethylsulfonylfluoride for 30 minutes at room temperature. Drug dilution and [125I]PYY (˜50 pM: NEN-DuPont) were added to the wells, and the cells were incubated for an additional 3 hours at room temperature, followed by rinsing with ice-cold DPBS. Nonspecific binding was defined with 1 μM NPY. After lysing the cells with 1% Triton X-100, the amount of radioactivity in the lysates was quantitated with a gamma counter.

Structures are written as SMILES.

Chain of human Y4/PP1 receptor (P50391 whole entry): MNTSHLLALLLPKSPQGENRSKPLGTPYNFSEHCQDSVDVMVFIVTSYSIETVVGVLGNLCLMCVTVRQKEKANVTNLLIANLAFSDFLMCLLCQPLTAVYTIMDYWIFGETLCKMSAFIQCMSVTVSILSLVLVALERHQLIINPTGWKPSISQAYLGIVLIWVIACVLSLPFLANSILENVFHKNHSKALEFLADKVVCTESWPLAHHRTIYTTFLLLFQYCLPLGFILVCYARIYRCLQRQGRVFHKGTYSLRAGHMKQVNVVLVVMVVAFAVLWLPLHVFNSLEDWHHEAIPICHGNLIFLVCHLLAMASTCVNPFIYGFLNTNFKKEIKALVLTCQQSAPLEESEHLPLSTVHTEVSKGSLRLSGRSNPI

For the molecule `CC(C)OCCCNC(=O)CN1CCC(n2c(=O)[nH]c3ccccc32)CC1` [Compound 289, N-(3-Isopropoxy-propyl)-2-[4-(2-oxo-2,3-dihydro-benzoimidazol-1-yl)-piperidin-1-yl]-acetamide], the melting point (in general, the temperature, or range, at which the solid turns liquid) lay within 67 to 68 °C.
Consider `Cl.O=C(CN1CCC(n2c(=O)[nH]c3ccccc32)CC1)N1CCCCCCC1` [Compound 305, 1-[1-(2-Azocan-1-yl-2-oxo-ethyl)-piperidin-4-yl]-1,3-dihydro-benzoimidazol-2-one; hydrochloride], for which the melting point is 158 °C. Moreover, the IC50 (usually the point on the concentration scale where inhibition reaches its midpoint) on human Y4/PP1 receptor was more than 5 µM. Moreover, the IC50 at Y2 receptor is more than 5 µM.
`O=C(CN1CCC(n2c(=O)[nH]c3ccccc32)CC1)N1CCCCCC1` [Compound 309, 1-[1-(2-Azepan-1-yl-2-oxo-ethyl)-piperidin-4-yl]-1,3-dihydro-benzoimidazol-2-one] yielded a melting point of 166 °C. The IC50 on human Y4/PP1 receptor is more than 5 µM. At Y2 receptor, the IC50 was more than 5 µM.
Turning to `O=C(CN1CCC(n2c(=O)[nH]c3ccccc32)CC1)Nc1ccc(Cl)cc1` [Compound 358, N-(4-Chloro-phenyl)-2-[4-(2-oxo-2,3-dihydro-benzoimidazol-1-yl)-piperidin-1-yl]-acetamide, reference compound], the IC50 was 0.73 µM at Human NPY5 receptor; 0.443 µM on Rat NPY5 receptor; more than 5 µM at human Y4/PP1 receptor; more than 5 µM at Human NPY1 receptor; more than 5 µM at Y2 receptor.
For `O=C(CN1CCC(n2c(=O)[nH]c3ccccc32)CC1)Nc1ccc2cn[nH]c2c1` [Compound 344, N-(1H-Indazol-6-yl)-2-[4-(2-oxo-2,3-dihydro-benzoimidazol-1-yl)-piperidin-1-yl]-acetamide, reference compound], the 50% inhibitory concentration (IC50) on Human NPY5 receptor was 2.7 µM; on Rat NPY5 receptor, 1.7 µM; at human Y4/PP1 receptor it was more than 5 µM; on Human NPY1 receptor it was more than 5 µM; at Y2 receptor, more than 5 µM.
On to `COC(=O)c1ccc(NC(=O)CN2CCC(n3c(=O)[nH]c4ccccc43)CC2)cc1` [Compound 360, 4-(2-[4-(2-Oxo-2,3-dihydro-benzoimidazol-1-yl)-piperidin-1-yl]-acetylamino)-benzoic acid methyl ester, reference compound], for which the IC50 on Human NPY5 receptor is 0.055 µM; on Rat NPY5 receptor it was 0.0562 µM; on human Y4/PP1 receptor, more than 5 µM; at Human NPY1 receptor, more than 5 µM; on Y2 receptor it was more than 5 µM.
Regarding `CCN(CC)c1ccc(NC(=O)CN2CCC(n3c(=O)[nH]c4ccccc43)CC2)cc1` [Compound 336, N-(4-Diethylamino-phenyl)-2-[4-(2-oxo-2,3-dihydro-benzoimidazol-1-yl)-piperidin-1-yl]-acetamide, reference compound], the IC50 on Human NPY5 receptor was 0.22 µM; at Rat NPY5 receptor, 0.205 µM; on human Y4/PP1 receptor, more than 5 µM; on Human NPY1 receptor, more than 5 µM; on Y2 receptor, more than 5 µM.
As for `NC(=O)c1ccc(NC(=O)CN2CCC(n3c(=O)[nH]c4ccccc43)CC2)cc1` [Compound 350, 4-(2-[4-(2-Oxo-2,3-dihydro-benzoimidazol-1-yl)-piperidin-1-yl]-acetylamino)-benzamide, reference compound], the IC50 on Human NPY5 receptor is 2.3 µM; at Rat NPY5 receptor, 1.4 µM; on human Y4/PP1 receptor it was more than 5 µM; on Human NPY1 receptor, more than 5 µM; at Y2 receptor, more than 5 µM.
With `Cl.O=C(CN1CCC(n2c(=O)[nH]c3ccccc32)CC1)Nc1ccc(C(=O)C(=O)c2ccccc2)cc1` [Compound 265, 2-[4-(2-Oxo-2,3-dihydro-benzoimidazol-1-yl]-N-[4-(oxo-phenyl-acetyl)-phenyl]-acetamide; hydrochloride], the IC50 was 0.005 µM on Human NPY5 receptor; 0.005 µM on Rat NPY5 receptor; more than 5 µM on human Y4/PP1 receptor; more than 5 µM at Human NPY1 receptor; more than 5 µM at Y2 receptor.
Turning to `O=C(CN1CCC(n2c(=O)[nH]c3ccccc32)CC1)NC1CCCC1.O=C(O)C(=O)O` [Compound 288, N-Cyclopentyl-2-[4-(2-oxo-2,3-dihydro-benzoimidazol-1-yl)-piperidin-1-yl]-acetamide; compound with oxalic acid], the melting point is 217 to 218 °C. The IC50 on human Y4/PP1 receptor is more than 5 µM. In addition, the IC50 at Y2 receptor is more than 5 µM.
Consider `O=C(CN1CCC(n2c(=O)[nH]c3ccccc32)CC1)Nc1ccc([N+](=O)[O-])cc1` [Compound 355, N-(4-Nitro-phenyl)-2-[4-(2-oxo-2,3-dihyro-benzoimidazol-1-yl)-piperidin-1-yl]-acetamide, reference compound], for which the IC50 at Human NPY5 receptor was 0.2 µM; on Rat NPY5 receptor, 0.19 µM; on human Y4/PP1 receptor it was more than 5 µM; on Human NPY1 receptor it was more than 5 µM; on Y2 receptor, more than 5 µM.
`O.O=C(CN1CCC(n2c(=O)[nH]c3ccccc32)CC1)Nc1ccc(-c2cnco2)cc1` (hydrate or solvate) [Compound 267, N-(4-Oxazol-5-yl-phenyl)-2-[4-(2-oxo-2,3-dihydro-benzoimidazol-1-yl)-piperidin-1-yl]-acetamide; hydrate] registered a melting point of 177 to 178 °C.
The molecule `O=C(CN1CCC(n2c(=O)[nH]c3ccccc32)CC1)NCC1CCCO1` (stereo not drawn) [Compound 285, 2-[4-(2-Oxo-2,3-dihydro-benzoimidazol-1-yl)-piperidin-1-yl]-N-(tetrahydro-furan-2-ylmethyl)-acetamide] came in with a melting point of 179 to 180 °C. The IC50 on human Y4/PP1 receptor is more than 5 µM. The IC50 at Y2 receptor is more than 5 µM.
On to `Nc1cc(S(=O)(=O)c2ccccc2)ccc1NC(=O)CN1CCC(n2c(=O)[nH]c3ccccc32)CC1` [Compound 335, N-(2-Amino-4-benzenesulfonyl-phenyl)-2-[4-(2-oxo-2,3-dihydro-benzoimidazol-1-yl)-piperidin-1-yl]-acetamide, reference compound], for which the 50% inhibitory concentration (IC50) on Human NPY5 receptor is 0.11 µM; at Rat NPY5 receptor it was 0.098 µM; on human Y4/PP1 receptor it was more than 5 µM; on Human NPY1 receptor it was more than 5 µM; on Y2 receptor, more than 5 µM.
